Experimental data: article PMC8451667 (Emerging Microbes & Infections, 2021)
Like-named read-outs stand apart in the source and are kept apart here.

Legend:
MDCK cells = conditions: cited from earlier work
[1] = tested on: A/California/04/2009 (H1N1) virus; assay: microbe, parasite or virus in culture; format: cell-based, Influenza A virus; conditions: for EC50: Influenza A virus
Ca/04 (H1N1) virus = tested on: Ca/04 (H1N1) virus; set-up: species or system mice; conditions: mouse, in vivo
[2] = mouse, in vivo
[3] = tested on: several contemporary influenza A viruses; assay: microbe, parasite or virus in culture; format: cell-based; conditions: read-out: EC50 values against all IAVs tested
in vivo = conditions: male, BALB/c, mouse, ip, 50 mg/kg
in vitro = conditions: dog

SMILES	CC50 (MDCK cells) [nM]	EC50 ([1]; H1N1, read-out: EC50 alone Oseltamivir (nM)) [nM]	Clinical signs: activity (Ca/04 (H1N1) virus)	Clinical signs: physical appearance (Ca/04 (H1N1) virus)	Influenza virus nucleoprotein in lungs by immunostaining (Ca/04 (H1N1) virus)	Loss of initial body weight (Ca/04 (H1N1) virus) [%]	Survival (Ca/04 (H1N1) virus) [%]	Virus titers in lung and NT by TCID50 vs Ca/04-vehicle group (Ca/04 (H1N1) virus)	Histopathology of brain, livers, kidneys, lungs and hearts [2]	EC50 [3] [nM]	Combination effect with oseltamivir in cell culture [1]	EC50 ([1]; H1N1, read-out: EC50 alone UAWJ280 (μM)) [nM]	Section with pneumocyte type 2 hyperplasia and hypertrophy, alveolar oedema and inflammation (Ca/04 (H1N1) virus)	AUC(0-inf) (in vivo) [µM·h]	CL/F (in vivo) [mL/min/kg]	Cmax (in vivo) [µM]	Tmax (in vivo) [h]	Vd/F (in vivo) [L/kg]	half-life (in vivo) [h]	CC50 (in vitro) [nM]
CCC(CC)O[C@@H]1C=C(C(=O)O)C[C@H](N)[C@H]1NC(C)=O [Oseltamivir carboxylate]	> 20000	–	–	–	–	–	–	–	–	–	–	–	–	–	–	–	–	–	–	–
CCOC(=O)C1=C[C@@H](OC(CC)CC)[C@H](NC(C)=O)[C@@H](N)C1 [Oseltamivir, Oseltamivir phosphate, reference compound]	–	1.77 ± 0.11	remained alert	mild clinical signs	mild-moderate amounts of viral antigens	~15	85	trend towards reduced virus load	no signs of toxicity	–	–	–	–	–	–	–	–	–	–	–
OC12CC3CC(C1)CC(NCc1ccc(I)s1)(C3)C2 [UAWJ106]	> 100000	–	–	–	–	–	–	–	–	–	–	–	–	–	–	–	–	–	–	–
[2H]C(NC12CC3CC(CC(O)(C3)C1)C2)c1ccc(I)s1 (stereo not shown) [UAWJ280, 3-{[(5-iodothiophen-2-yl)(D)methyl]amino}adamantan-1-ol]	–	–	minor changes in activity	mild clinical signs	moderate amounts of virus nucleoprotein	~15	90	trend towards reduced virus load	no signs of toxicity	200 to 600	strong synergistic antiviral effect	300 ± 18	up to 80%	11.5	187	5.61	0.42	38 ± 4.4	2.34	> 100000
